Data set [1] is described as follows: Toxicity in mouse assessed as adverse effect at 10 to 20 mg/kg, ip administered for 3 days every 12 hrs. The format is organism-based. Particulars: in vivo, 72 h, dose 10-20 mg/kg, time 3 day.
For data set [2], the system named is Mus musculus. The experiment in a line: Neuroprotective activity in hMFN2-induced CMT2A transgenic mouse model assessed as increase in paw withdrawal threshold at 20 mg/kg, ip qd administered when treated prior with compound dissolved in PBS/PEG400/Tween80/EtOH (50/35/10/5) wt% as vehicle by von Frey test. The format is functional, organism-based.
Data set [3] can be described thus: Genotoxicity in Salmonella typhimurium TA98 at 5 to 100 uM in absence of liver S9 fraction by Ames test. The format is toxicity. Particulars: salmonella enterica subsp. enterica serovar typhimurium, s9, 100 µM; dose 5-100 µM. (The Ames test detects mutagens through reverse mutation in bacteria.)
The test system of data set [4] is Mus musculus. The experiment in a line: Neuroprotective activity in hMFN2-induced CMT2A transgenic mouse model assessed as increase in paw withdrawal latency at 20 mg/kg, ip qd by von Frey test. The data set is classed as functional, organism-based.
Data set [5] has as its target T1, Protein deacetylase HDAC6 (Mus musculus) (UniProt Q9Z2V5).
T1 sequence (whole entry): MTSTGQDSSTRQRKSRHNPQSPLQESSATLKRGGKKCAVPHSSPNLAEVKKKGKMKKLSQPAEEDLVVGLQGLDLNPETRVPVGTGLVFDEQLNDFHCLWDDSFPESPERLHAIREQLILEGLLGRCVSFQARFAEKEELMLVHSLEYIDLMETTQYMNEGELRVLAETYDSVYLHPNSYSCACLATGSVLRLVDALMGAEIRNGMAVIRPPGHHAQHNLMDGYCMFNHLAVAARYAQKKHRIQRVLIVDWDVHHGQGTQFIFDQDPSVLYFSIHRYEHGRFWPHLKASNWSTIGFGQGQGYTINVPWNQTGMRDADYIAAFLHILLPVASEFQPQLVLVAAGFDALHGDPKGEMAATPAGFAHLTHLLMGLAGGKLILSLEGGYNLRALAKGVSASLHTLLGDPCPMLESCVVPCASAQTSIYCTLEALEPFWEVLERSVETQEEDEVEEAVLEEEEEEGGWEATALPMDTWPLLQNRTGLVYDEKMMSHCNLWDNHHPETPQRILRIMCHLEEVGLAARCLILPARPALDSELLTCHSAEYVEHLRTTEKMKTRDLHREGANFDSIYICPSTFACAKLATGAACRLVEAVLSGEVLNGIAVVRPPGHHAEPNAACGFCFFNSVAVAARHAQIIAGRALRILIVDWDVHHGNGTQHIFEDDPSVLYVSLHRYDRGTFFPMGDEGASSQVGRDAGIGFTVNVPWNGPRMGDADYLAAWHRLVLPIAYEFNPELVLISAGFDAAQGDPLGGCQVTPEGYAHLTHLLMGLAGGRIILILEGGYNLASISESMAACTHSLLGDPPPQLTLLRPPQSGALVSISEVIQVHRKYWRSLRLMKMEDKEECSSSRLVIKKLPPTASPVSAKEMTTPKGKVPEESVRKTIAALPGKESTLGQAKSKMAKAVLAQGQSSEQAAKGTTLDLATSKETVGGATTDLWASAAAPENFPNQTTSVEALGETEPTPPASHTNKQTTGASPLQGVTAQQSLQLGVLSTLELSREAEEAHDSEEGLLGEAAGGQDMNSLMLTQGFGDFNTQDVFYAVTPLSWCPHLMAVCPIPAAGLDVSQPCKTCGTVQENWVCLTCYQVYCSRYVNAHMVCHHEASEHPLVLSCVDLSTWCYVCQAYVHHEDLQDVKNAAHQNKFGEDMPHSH
Nature of the data set: In vivo inhibition of HDAC6 in wild type mouse assessed as increase in alpha-tubulin acetylation in sciatic nerve tissue at 10 to 20 mg/kg, ip measured after 6 hrs by immunoblot analysis relative to control. The arrangement: scale not given: the % may be the effect or the level left. Particulars: dose 10-20 mg/kg. The data set is classed as functional, organism-based. (In general: In western blotting, separated proteins are transferred to a membrane and probed.)

Data set [6] can be described thus: Half life in human pooled liver microsomes assessed as parent compound remaining measured up to 60 mins in presence of NADPH by LC-MS/MS analysis. The data set is classed as ADME, Microsome. Particulars: pooled liver microsomes. (In general: Liver microsomes are a subcellular fraction often used to study metabolism.)
The target in the next data set is hERG (KCNH2) (Homo sapiens, UniProt Q12809). The experiment in a line: Inhibition of human ERG expressed in CHO cells at 10 uM by automated patch clamp method relative to control. The data set is classed as cell-based. As to conditions: CHO cells expressing human ERG.
Data set [7] concerns the target T1, Protein deacetylase HDAC6 (Mus musculus). The experiment in a line: In vivo inhibition of HDAC6 in wild type mouse assessed as increase in alpha-tubulin acetylation in sciatic nerve tissue at 20 mg/kg, ip administered for 12 hrs by immunoblot analysis relative to control. The data set is classed as functional, organism-based. Further details: scale not given: the % may be the effect or the level left.

Data set [8] in a line: Half life in mouse plasma. The data set is classed as ADME, cell-free.
Data set [9] deals with Mus musculus. The experiment in a line: Neuroprotective activity in hMFN2-induced CMT2A transgenic mouse model assessed as increase in paw withdrawal threshold at 20 mg/kg, ip qd by von Frey test. The format is functional, organism-based.
The nature of data set [10]: Stability in CD1 mouse pooled liver microsomes assessed as parent compound remaining measured at 60 mins in presence of NADPH by LC-MS/MS analysis. The data set is classed as ADME, Microsome. Particulars: CD1, mouse, pooled liver microsomes, read-out: Stabilty.
The target in the next data set is Histone deacetylase 5 (Homo sapiens, UniProt Q9UQL6). Nature of the data set: Inhibition of recombinant human HDAC5 using Boc-Lys(TFA)-AMC as substrate preincubated for 10 mins followed by substrate addition and measured after 30 mins by fluorescence-based assay.
The target in data set [11] is T1, Protein deacetylase HDAC6 (Mus musculus). The experiment in a line: In vivo inhibition of HDAC6 in wild type mouse assessed as increase in alpha-tubulin acetylation in sciatic nerve tissue at 10 to 20 mg/kg, ip measured after 48 hrs by immunoblot analysis. The data set is classed as functional, organism-based. Particulars: dose 10-20 mg/kg.
Data set [12] in a line: Protein binding in mouse plasma. The format is ADME, cell-free. As to conditions: read-out: PPB (converted).
A short description of data set [13]: Total AUC (0 to infinity) in C57BL/6J mouse plasma at 15 mg/kg, ip. The data set is classed as ADME, organism-based. The arrangement: route intraperitoneal, time AUCmax, dose 15 mg/kg.
Data set [14] can be described thus: Cmax in C57BL/6J mouse brain at 15 mg/kg, ip. The format is ADME, organism-based. Further details: route intraperitoneal, dose 15 mg/kg.
In data set [15] the target is T2, Histone deacetylase 1 (Homo sapiens, UniProt Q13547).
Description: Inhibition of recombinant human HDAC1 using Ac-GAK(Ac)-AMC as substrate preincubated for 10 mins followed by substrate addition and measured after 30 mins by fluorescence-based assay
Data set [16] has as its system Mus musculus. The experiment in a line: Neuroprotective activity in hMFN2-induced CMT2A transgenic mouse model assessed as increase in paw withdrawal latency at 20 mg/kg, ip qd administered when treated prior with compound dissolved in PBS/PEG400/Tween80/EtOH (50/35/10/5) wt% as vehicle by von Frey test. The format is functional, organism-based.
The target of another data set is Histone deacetylase 2 (Homo sapiens, UniProt Q92769). The experiment in a line: Inhibition of recombinant human HDAC2 using Ac-GAK(Ac)-AMC as substrate preincubated for 10 mins followed by substrate addition and measured after 30 mins by fluorescence-based assay.
The nature of data set [17]: Tmax in C57BL/6J mouse plasma at 15 mg/kg, ip. The format is ADME, organism-based.
Data set [18] concerns the target T2, Histone deacetylase 1. This is another data set of the same source.
Description: Inhibition of Nanoluc-fused HDAC1 (unknown origin) expressed in HEK293 cells incubated for 2 hrs by NANOBRET assay
For data set [19], the system named is Mus musculus. The experiment in a line: Neuroprotective activity in hMFN2-induced CMT2A transgenic mouse model assessed as increase in motor performance at 20 mg/kg, ip qd administered for 26 weeks when treated prior with compound dissolved in PBS/PEG400/Tween80/EtOH (50/35/10/5) wt% as vehicle by rotarod test. The format is functional, organism-based.
Data set [20] concerns Mus musculus. The experiment in a line: Neuroprotective activity in hMFN2-induced CMT2A transgenic mouse model assessed as increase in motor performance at 20 mg/kg, ip qd by rotarod test. The data set is classed as functional, organism-based.

A word on the half-life: it is the time in which the quantity being followed falls by half. As a reminder, the inhibition is the drop in the measured response relative to a control, in per cent. A word on the IC50: it is the concentration needed to halve the response being measured. Broadly, the AUC(0-inf) is total exposure, with the tail of the curve extrapolated. The Cmax is the peak of the concentration-time curve. The term Tmax denotes the time at which the peak concentration occurs.

The structures appear in SMILES notation. Calls of active or inactive are those of the source.

T2 sequence (Q13547 whole entry): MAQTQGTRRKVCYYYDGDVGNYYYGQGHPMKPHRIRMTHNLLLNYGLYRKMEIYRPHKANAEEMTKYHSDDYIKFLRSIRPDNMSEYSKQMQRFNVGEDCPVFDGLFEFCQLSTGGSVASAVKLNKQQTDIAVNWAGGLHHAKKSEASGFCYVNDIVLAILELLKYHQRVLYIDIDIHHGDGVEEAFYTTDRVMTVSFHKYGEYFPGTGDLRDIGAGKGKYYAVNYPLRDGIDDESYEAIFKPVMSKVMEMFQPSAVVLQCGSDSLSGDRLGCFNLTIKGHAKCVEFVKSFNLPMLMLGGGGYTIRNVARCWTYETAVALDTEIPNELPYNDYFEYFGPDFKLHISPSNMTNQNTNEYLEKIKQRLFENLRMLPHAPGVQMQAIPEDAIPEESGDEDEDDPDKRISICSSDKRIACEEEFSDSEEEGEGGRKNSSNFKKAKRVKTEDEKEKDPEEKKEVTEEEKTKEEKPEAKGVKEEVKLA
Histone deacetylase 5, sequence (Q9UQL6 whole entry): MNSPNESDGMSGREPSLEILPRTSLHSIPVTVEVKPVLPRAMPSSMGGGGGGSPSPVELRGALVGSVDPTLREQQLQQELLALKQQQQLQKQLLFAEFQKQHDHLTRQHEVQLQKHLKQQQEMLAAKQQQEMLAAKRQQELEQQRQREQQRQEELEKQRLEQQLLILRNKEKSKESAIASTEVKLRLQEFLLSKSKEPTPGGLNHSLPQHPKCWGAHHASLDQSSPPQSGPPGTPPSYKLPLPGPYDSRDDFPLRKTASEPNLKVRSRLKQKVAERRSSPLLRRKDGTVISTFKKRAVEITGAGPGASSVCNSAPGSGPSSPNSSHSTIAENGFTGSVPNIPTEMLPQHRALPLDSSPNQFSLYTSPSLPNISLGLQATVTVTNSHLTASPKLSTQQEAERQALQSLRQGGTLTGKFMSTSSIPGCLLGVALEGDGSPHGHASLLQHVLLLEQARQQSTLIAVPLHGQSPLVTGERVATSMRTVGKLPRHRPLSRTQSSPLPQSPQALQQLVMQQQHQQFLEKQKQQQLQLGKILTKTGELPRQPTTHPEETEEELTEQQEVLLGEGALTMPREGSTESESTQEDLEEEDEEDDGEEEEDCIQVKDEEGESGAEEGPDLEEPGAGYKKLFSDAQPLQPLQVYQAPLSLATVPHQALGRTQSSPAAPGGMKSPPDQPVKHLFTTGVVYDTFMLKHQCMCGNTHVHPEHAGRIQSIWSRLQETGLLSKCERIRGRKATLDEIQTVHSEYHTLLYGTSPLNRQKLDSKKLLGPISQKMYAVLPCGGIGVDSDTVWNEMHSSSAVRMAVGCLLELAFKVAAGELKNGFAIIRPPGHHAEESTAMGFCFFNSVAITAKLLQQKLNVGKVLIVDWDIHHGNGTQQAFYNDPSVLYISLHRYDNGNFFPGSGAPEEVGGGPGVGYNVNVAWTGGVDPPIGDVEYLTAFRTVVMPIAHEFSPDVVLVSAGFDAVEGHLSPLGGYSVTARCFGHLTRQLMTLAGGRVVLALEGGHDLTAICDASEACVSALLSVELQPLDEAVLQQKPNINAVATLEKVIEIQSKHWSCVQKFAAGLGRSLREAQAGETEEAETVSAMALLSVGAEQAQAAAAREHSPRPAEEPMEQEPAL
hERG (KCNH2), sequence (Q12809 whole entry): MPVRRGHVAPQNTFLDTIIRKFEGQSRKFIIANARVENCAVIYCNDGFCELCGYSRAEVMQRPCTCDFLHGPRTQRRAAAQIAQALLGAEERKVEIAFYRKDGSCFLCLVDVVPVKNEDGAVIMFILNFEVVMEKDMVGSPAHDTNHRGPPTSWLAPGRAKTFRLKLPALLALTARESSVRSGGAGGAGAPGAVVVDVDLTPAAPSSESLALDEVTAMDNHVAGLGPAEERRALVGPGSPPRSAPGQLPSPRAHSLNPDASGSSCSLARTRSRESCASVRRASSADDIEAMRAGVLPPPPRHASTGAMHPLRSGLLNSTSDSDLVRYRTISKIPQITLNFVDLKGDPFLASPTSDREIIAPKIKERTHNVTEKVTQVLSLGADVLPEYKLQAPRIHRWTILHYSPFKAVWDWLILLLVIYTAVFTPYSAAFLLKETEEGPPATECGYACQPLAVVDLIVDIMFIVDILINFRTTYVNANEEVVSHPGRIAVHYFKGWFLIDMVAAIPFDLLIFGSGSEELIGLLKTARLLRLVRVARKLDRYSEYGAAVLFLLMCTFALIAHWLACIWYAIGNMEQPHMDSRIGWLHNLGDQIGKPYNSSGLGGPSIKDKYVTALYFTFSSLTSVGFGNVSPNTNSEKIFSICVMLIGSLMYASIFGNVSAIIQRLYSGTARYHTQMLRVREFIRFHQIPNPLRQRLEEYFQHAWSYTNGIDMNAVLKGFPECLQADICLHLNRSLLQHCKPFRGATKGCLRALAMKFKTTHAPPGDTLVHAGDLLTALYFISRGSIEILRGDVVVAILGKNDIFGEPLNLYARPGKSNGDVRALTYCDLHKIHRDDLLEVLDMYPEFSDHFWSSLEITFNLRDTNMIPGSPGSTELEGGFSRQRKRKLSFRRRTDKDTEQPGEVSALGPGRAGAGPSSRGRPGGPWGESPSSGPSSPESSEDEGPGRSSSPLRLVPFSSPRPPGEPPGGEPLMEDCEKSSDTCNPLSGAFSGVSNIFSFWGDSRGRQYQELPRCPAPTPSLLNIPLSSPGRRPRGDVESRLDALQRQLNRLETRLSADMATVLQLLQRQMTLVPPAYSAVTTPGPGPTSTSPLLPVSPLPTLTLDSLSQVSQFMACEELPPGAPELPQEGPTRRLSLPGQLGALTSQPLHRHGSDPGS
Histone deacetylase 2, sequence (Q92769 whole entry): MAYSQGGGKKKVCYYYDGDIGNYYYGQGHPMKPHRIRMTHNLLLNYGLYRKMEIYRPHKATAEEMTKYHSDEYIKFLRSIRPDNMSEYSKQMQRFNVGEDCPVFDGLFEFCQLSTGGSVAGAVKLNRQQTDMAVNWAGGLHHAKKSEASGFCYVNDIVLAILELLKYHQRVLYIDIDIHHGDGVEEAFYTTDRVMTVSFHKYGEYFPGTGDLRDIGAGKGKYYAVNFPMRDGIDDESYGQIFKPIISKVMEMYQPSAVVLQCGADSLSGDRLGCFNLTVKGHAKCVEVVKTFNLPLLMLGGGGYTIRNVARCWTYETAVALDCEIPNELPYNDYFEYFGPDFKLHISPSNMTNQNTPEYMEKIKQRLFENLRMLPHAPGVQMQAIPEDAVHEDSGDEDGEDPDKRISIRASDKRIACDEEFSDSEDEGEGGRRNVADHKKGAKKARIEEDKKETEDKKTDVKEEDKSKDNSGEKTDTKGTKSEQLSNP

On to `NC(=O)c1ccc2c(c1)CCCN2Cc1ccc(C(=O)NO)cc1`, for which the Activity result in data set [1] was “Non-Toxic”; in [3], “Non-Toxic”; in data set [5], 150%; in [7], 175%. Further, the outcome with Mus musculus [2], with Mus musculus [4], in the data set with Mus musculus [9], in the data set with Mus musculus [16], in the data set with Mus musculus [19] and with Mus musculus [20] was Active. The half-life stood at 2.89 h in [6] and 2.12 h in [8]. At hERG (KCNH2), this molecule came in with an inhibition at 10 µM of 30%. For the same molecule, the remaining at 1 h in data set [10] is 56%. The IC50 at Histone deacetylase 5 was determined as 276 nM; against Histone deacetylase 1 [15], 356 nM; at Histone deacetylase 2 it was 140 nM; against Histone deacetylase 1 [18] it was 4830 nM. For the same molecule, in data set [11], the inhibition entry was “inactive”. Moreover, in data set [12], the fraction unbound was 0.241. Besides, the AUC(0-inf) in data set [13] was 1750 ng·h/mL. The highest level in [14] (Cmax) was 223 ng/mL. Besides, in [17], the Tmax came out at 4.8 min.

For the origin of these results see ChEMBL document CHEMBL4823254, “Tetrahydroquinoline-Capped Histone Deacetylase 6 Inhibitor SW-101 Ameliorates Pathological Phenotypes in a Charcot-Marie-Tooth Type 2A Mouse Model” (J Med Chem, 2021).
